We go through 18 compounds from the SangsterLogP compilation.

This data set can be described thus: method code SF-HPLC, from DOI: 10.1002/qsar.200300824.
In turn, `O=c1cc(-c2ncon2)c2ccccc2o1` displayed a logP of 1.95.
Next, `O=c1cc(C2=NOCN2)c2ccccc2o1`: 1.98; `COc1ccc(-c2nc(-c3cc(=O)oc4ccccc34)no2)cc1`: 2.98; `O=c1cc(-c2noc(-c3ccccc3)n2)c2ccccc2o1`: 3.22.
Compound `COc1ccc(-c2noc(-c3cc(=O)oc4ccccc34)n2)cc1` came in with a logP of 3.07.
Next, `O=c1oc2ccccc2c(C(=NO)NC2CCCCC2)c1Cl`: 2.78; `Cc1nc(-c2cc(=O)oc3ccccc23)no1`: 2.12; `O=c1oc2ccccc2c(C(=NO)Nc2ccccc2)c1Cl`: 2.58.
As for `O=c1cc(-c2noc(=S)n2-c2ccccc2)c2ccccc2o1`, the figure is 3.03; as for `O=c1cc(C2=NOCN2c2ccccc2)c2ccccc2o1`, 2.45.
Next, `O=c1cc(C=NNc2ccccc2)c2ccccc2o1`: 3.63.
In the case of `CC(=O)ON=C(N)c1cc(=O)oc2ccccc12`, the logP was 1.
`CC1NC(c2cc(=O)oc3ccccc23)=NO1` (stereo not drawn): the logP is 1.93.
The compound `O=c1cc(C2=NOS(=O)N2c2ccccc2)c2ccccc2o1` (stereo not drawn) had a logP of 2.16.
Next, `O=c1oc2ccccc2c(C(CCO)=NO)c1Cl`: 0.22.
With `CC1ON=C(c2cc(=O)oc3ccccc23)N1c1ccccc1` (stereo not drawn), the logP was determined as 2.7.
Turning to `COc1ccc(C2=NOC(c3cc(=O)oc4ccccc34)O2)cc1` (stereo not drawn), the logP turned out to be 3.04.
The compound `Cc1ccc(NC(=NO)c2c(Cl)c(=O)oc3ccccc23)cc1` displayed a logP of 2.89.
